Legend:
Vero cells = settings: CC50 Vero cells / MIC Mtb H37Rv
M. chelonae ATCC 35752 = assay: Antimycobacterial broth microdilution MIC, non-tuberculous mycobacteria; type: cell-based; settings: 48 h
M. fortuitum ATCC 6841 = assay: as above; type: cell-based; settings: 48 h

COC(=O)c1cc(-c2cccc(NC(=O)Nc3ccccc3OC)c2)on1 [4d, Methyl 5-(3-(3-(2-methoxyphenyl)ureido)phenyl)isoxazole-3-carboxylate]
SI selectivity index (CC50/MIC) (Vero cells): < 20

COC(=O)c1cc(-c2cccc(NC(=O)Nc3ccc(F)cc3)c2)on1 [4j, Methyl 5-(3-(3-(4-fluorophenyl)ureido)phenyl)isoxazole-3-carboxylate]
SI selectivity index (CC50/MIC) (Vero cells): > 200

COC(=O)c1cc(-c2cccc(NC(=O)Nc3ccc(C(F)(F)F)cc3)c2)on1 [4n, Methyl 5-(3-(3-(4-(trifluoromethyl)phenyl)ureido)phenyl)isoxazole-3-carboxylate]
SI selectivity index (CC50/MIC) (Vero cells): > 50

COC(=O)c1cc(-c2cccc(NC(=O)Nc3ccc(Cl)cc3Cl)c2)on1 [4r, Methyl 5-(3-(3-(2,4-dichlorophenyl)ureido)phenyl)isoxazole-3-carboxylate]
SI selectivity index (CC50/MIC) (Vero cells): > 50

COC(=O)c1cc(-c2ccc(NC(=O)Nc3ccc(Cl)c(Cl)c3)cc2)on1 [4tb, Methyl 5-(4-(3-(3,4-dichlorophenyl)ureido)phenyl)isoxazole-3-carboxylate]
SI selectivity index (CC50/MIC) (Vero cells): > 80

COC(=O)c1cc(-c2cccc(NC(=O)Nc3cc(OC)ccc3OC)c2)on1 [4w, Methyl 5-(3-(3-(2,5-dimethoxyphenyl)ureido)phenyl)isoxazole-3-carboxylate]
SI selectivity index (CC50/MIC) (Vero cells): < 20

COC(=O)c1cc(-c2cccc(NC(=S)Nc3ccc(Cl)cc3)c2)on1 [5f, Methyl 5-(3-(3-(4-chlorophenyl)thioureido)phenyl)isoxazole-3-carboxylate]
SI selectivity index (CC50/MIC) (Vero cells): > 50

COC(=O)c1cc(-c2cccc(NC(=S)Nc3ccc(C#N)cc3)c2)on1 [5i, Methyl 5-(3-(3-(4-cyanophenyl)thioureido)phenyl)isoxazole-3-carboxylate]
MIC M. chelonae ATCC 35752 (M. chelonae ATCC 35752): weaker inhibition | MIC M. fortuitum ATCC 6841 (M. fortuitum ATCC 6841): weaker inhibition

COC(=O)c1cc(-c2cccc(NC(=S)Nc3ccc(F)cc3F)c2)on1 [5k, Methyl 5-(3-(3-(2,4-difluorophenyl)thioureido)phenyl)isoxazole-3-carboxylate]
MIC M. chelonae ATCC 35752 (M. chelonae ATCC 35752): weaker inhibition | MIC M. fortuitum ATCC 6841 (M. fortuitum ATCC 6841): weaker inhibition

COC(=O)c1cc(-c2cccc(NC(=S)Nc3ccc(F)c(Cl)c3)c2)on1 [5m, Methyl 5-(3-(3-(3-chloro-4-fluorophenyl)thioureido)phenyl)isoxazole-3-carboxylate]
MIC M. chelonae ATCC 35752 (M. chelonae ATCC 35752): weaker inhibition | MIC M. fortuitum ATCC 6841 (M. fortuitum ATCC 6841): weaker inhibition

Reference: publication PMC9592870 (Molecular Diversity, 2022)
